Values joined by “and” are separate entries in the source; they are usually repeats but may differ in a detail not shown here. Identical values can stand only once.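 A five-concentration, 48-hour dose response in 96-well plates underlies each endpoint, interpolated linearly between surrounding concentrations. Abbreviation: GI50, concentration required for 50% inhibition of growth. TGI marks complete inhibition of growth.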
What was measured:
Assay in all cases: growth of human tumour cells (NCI), 48 h
[1] = tested on: MALME-3M melanoma
[2] = tested on: OVCAR-5 ovarian
[3] = tested on: SK-OV-3 ovarian
[4] = tested on: PC-3 prostate
[5] = tested on: CCRF-CEM leukemia
[6] = tested on: K-562 leukemia
[7] = tested on: 786-0 renal
[8] = tested on: MCF7 breast
[9] = tested on: COLO 205 colon
[10] = tested on: OVCAR-8 ovarian

SMILES | GI50 [1] | TGI [1] | GI50 [2] | TGI [2] | GI50 [3] | TGI [3] | GI50 [4] | TGI [4] | GI50 [5] | TGI [5] | GI50 [6] | TGI [6] | GI50 [7] | TGI [7] | GI50 [8] | TGI [8] | GI50 [9] | TGI [9] | GI50 [10] | TGI [10]
Cc1cc(-c2nc(C(=O)Nc3cc4oc(N5CCOCC5)nc4nc3N3CC[C@@H](O)C3)co2)ccn1 | 29.1 µM | > 100 µM | > 100 µM | > 100 µM | 16.6 µM | 66.9 µM | 26.9 µM | > 100 µM | 29.4 µM | > 100 µM | 41.2 µM | > 100 µM | 68.7 µM | > 100 µM | 84.1 µM | > 100 µM | 37.2 µM | > 100 µM | 38.7 µM | > 100 µM
COc1cccc(-c2cc(-c3cccc(NS(C)(=O)=O)c3)nc(N)c2C#N)c1O | 0.0465 µM | 93.4 µM | 1.08 µM | > 100 µM | 0.149 µM | > 100 µM | 0.111 µM | > 100 µM | 0.153 µM | > 100 µM | 0.0508 µM | > 100 µM | 0.375 µM | > 100 µM | 0.279 µM | > 100 µM | 0.128 µM | 1.91 µM | 0.351 µM | > 100 µM
CCC(=O)[C@H](C)[C@@H](OC(=O)[C@H](C)CC)[C@H](C)[C@H]1OC(CC)=C(C)C(=O)[C@@H]1C | 19.9 µM | 42.4 µM | 15.4 µM | 48 µM | 37.1 µM | > 100 µM | 16.8 µM | > 100 µM | 19.7 µM | 44.8 µM | 39.3 µM | > 100 µM | 25.5 µM | 84.2 µM | 26.3 µM | 89 µM | 14.9 µM | 29.3 µM | 42.4 µM | > 100 µM
COc1cc2c(cc1OCCCCN1CCN(CC(=O)Nc3ccc(Cl)cc3C(=O)c3ccccc3Cl)CC1)N=CC1CCCN1C2=O (stereo not given) | 0.186 µM | 0.346 µM | 0.324 µM | 0.939 µM | 0.38 µM | 1.22 µM | 0.238 µM | 0.547 µM | 0.159 µM | 0.434 µM | 0.208 µM | 2.82 µM | 0.205 µM | 0.456 µM | 0.167 µM | 0.567 µM | 0.175 µM | 0.335 µM | 0.327 µM | 1.09 µM
C=CC(=O)Nc1cc(Nc2ncc(C(=O)OC(C)C)c(-c3cn(C)c4ccccc34)n2)c(OC)cc1N(C)CCN(C)C | 1.69 µM | 3.24 µM | 2.72 µM | 18.1 µM | < 0.01 µM | 16.7 µM | 3.19 µM | 9.54 µM | 3.18 µM | 17.8 µM | 2.22 µM | > 23.4 µM | 3.15 µM | 12.9 µM | 2.12 µM | 7.62 µM | 3.2 µM | > 22.2 µM | 4.85 µM | 25 µM
Cc1ccc(NC(=O)Nc2ccc(-c3cccnc3)cc2N2CCC(CO)CC2)cc1 | 3.07 µM | > 100 µM | 3.64 µM | > 100 µM | 3.93 µM | > 100 µM | 5.6 µM | > 100 µM | 3.57 µM | > 100 µM | 2.19 µM | > 100 µM | 2.58 µM | 7.25 µM | 1.59 µM | > 100 µM | 2.85 µM | 11.1 µM | 6.43 µM | > 100 µM
Cc1cnc(NCCCN(C)C)c2c1[nH]c1ccc3cc(O)ccc3c12 |  | 2.2 µM |  | 3.95 µM |  | 2.75 µM |  | 2.21 µM |  | 5.88 µM |  | 3.68 µM |  | 1.84 µM |  | 2.15 µM |  | 1.57 µM |  | 1.96 µM
O=C(Nc1ccc(F)cc1)Nc1ccc(Cl)c([N+](=O)[O-])c1 | 2.37 µM | 7.2 µM | 3.55 µM | 14.9 µM | 2.62 µM | 7.52 µM | 1.6 µM | 11.1 µM | 3.3 µM | > 100 µM | 3.2 µM | > 100 µM | 3.37 µM | 13.2 µM | 2.66 µM | 11.9 µM | 2.48 µM | 6.31 µM | 2.98 µM | 15.1 µM
Cc1ccc2c(C)c3c(ccc4ccccc43)c[n+]2c1 | 1.96 µM | 5.69 µM | 39.5 µM | > 100 µM | 18.6 µM | 57.2 µM | 7.15 µM | 41 µM | 8.89 µM | 38.9 µM | 9.3 µM | 47.3 µM | 20.1 µM | > 100 µM | 0.629 µM | 25.9 µM | 11 µM | 24.7 µM | 6.35 µM | 25.4 µM
Nc1c(C(=O)c2cccc(CCS(N)(=O)=O)c2)cnn1-c1ccc(F)cc1 | > 25 µM | > 25 µM | > 25 µM | > 25 µM | > 25 µM | > 25 µM | > 25 µM | > 25 µM | > 25 µM | > 25 µM | > 25 µM | > 25 µM | > 25 µM | > 25 µM | > 25 µM | > 25 µM | > 25 µM | > 25 µM | > 25 µM | > 25 µM
NC(N)=NS(=O)(=O)c1ccc(Nc2c3ccccc3nc3c(C(=O)NCCO)cccc23)cc1 | 16.7 µM |  | 22.4 µM |  | 51.6 µM |  | 22.2 µM |  | 19.9 µM | > 100 µM | 35.1 µM |  | 21 µM |  | 13.5 µM |  | 33.6 µM |  | 29.8 µM | 
COc1cccc(C2c3cc4c(cc3OC(C)(N3CCCC3)C2C)OCO4)c1O (stereo not given) |  | 42.3 µM |  | 77.3 µM |  | 38.4 µM |  | > 43.5 µM |  | 21.2 µM |  | 18.3 µM |  | > 56 µM |  | > 37.1 µM |  | 10.4 µM |  | 40 µM
C[C@@H](Oc1cc(-n2cnc3ccc(CN4CCN(C)CC4)cc32)sc1C(N)=O)c1ccccc1C(F)(F)F | 2.81 µM and 2.77 µM | 7.62 µM and > 6.99 µM | < 0.0175 µM and 0.0264 µM | 16.6 µM and > 10 µM | 0.025 µM and 0.0673 µM | 1.67 µM and > 10 µM | < 0.0192 µM and 0.0293 µM | 15.5 µM and > 10 µM | < 0.01 µM and 0.0149 µM | 4.24 µM and > 2.07 µM | 0.00317 µM |  | 0.0439 µM and 0.0854 µM | 2.04 µM and > 7.11 µM | < 0.01 µM and 0.00478 µM | 15.2 µM and > 10 µM | < 0.01 µM and 0.00424 µM | 0.699 µM | < 0.0153 µM and 0.0146 µM | 13.6 µM and > 10 µM

— PubChem BioAssay (NCI)
